From ChEMBL document CHEMBL1275577, “Study of the in vitro activities of rifaximin and comparator agents against 536 anaerobic intestinal bacteria from the perspective of potential utility in pathology involving bowel flora” (Antimicrob Agents Chemother, 2009)

Key:
Format in all cases: functional
[1] = system: Bifidobacterium adolescentis; assay: Antimicrobial activity against Bifidobacterium adolescentis by Wadsworth agar dilution method
Clostridium subterminale = assay: Antimicrobial activity against Clostridium subterminale by Wadsworth agar dilution method
Clostridium fallax = assay: Antimicrobial activity against Clostridium fallax by Wadsworth agar dilution method
Eubacterium callanderi = assay: Antimicrobial activity against Eubacterium callanderi by Wadsworth agar dilution method
Schaalia meyeri = assay: Antimicrobial activity against Actinomyces meyeri by Wadsworth agar dilution method
Ruminococcus gnavus = assay: Antimicrobial activity against Ruminococcus gnavus by Wadsworth agar dilution method; conditions: Mediterraneibacter gnavus
Bacteroides caccae = assay: Antimicrobial activity against Bacteroides caccae by Wadsworth agar dilution method
Parvimonas micra = assay: Antimicrobial activity against Peptostreptococcus micros by Wadsworth agar dilution method
Desulfovibrio sp. = assay: Antimicrobial activity against Desulfovibrio sp. by Wadsworth agar dilution method
Clostridium sporogenes = assay: Antimicrobial activity against Clostridium sporogenes by Wadsworth agar dilution method
Ruminococcus lactaris = assay: Antimicrobial activity against Ruminococcus lactaris by Wadsworth agar dilution method
Blautia luti = assay: Antimicrobial activity against Ruminococcus luti by Wadsworth agar dilution method
[2] = system: Peptostreptococcus anaerobius; assay: Antimicrobial activity against Peptostreptococcus anaerobius by Wadsworth agar dilution method
Lactobacillus sp. = assay: Antimicrobial activity against Lactobacillus sp. by Wadsworth agar dilution method
Eubacterium limosum = assay: Antimicrobial activity against Eubacterium limosum by Wadsworth agar dilution method
Bifidobacterium breve = assay: Antimicrobial activity against Bifidobacterium breve by Wadsworth agar dilution method
[3] = system: Paeniclostridium sordellii; assay: Antimicrobial activity against Clostridium sordellii by Wadsworth agar dilution method; conditions: Paraclostridium sordellii
Anaerococcus prevotii = assay: Antimicrobial activity against Anaerococcus prevotii by Wadsworth agar dilution method
Anaerococcus tetradius = assay: Antimicrobial activity against Anaerococcus tetradius by Wadsworth agar dilution method
Porphyromonas = assay: Antimicrobial activity against Porphyromonas sp. by Wadsworth agar dilution method
Ruminococcus obeum = assay: Antimicrobial activity against Ruminococcus obeum by Wadsworth agar dilution method; conditions: Blautia obeum
[4] = system: Enterocloster clostridioformis; assay: Antimicrobial activity against Clostridium clostridioforme by Wadsworth agar dilution method
[5] = system: Clostridium aminobutyricum; assay: Antimicrobial activity against Clostridium aminobutyricum by Wadsworth agar dilution method
Desulfovibrio vulgaris = assay: Antimicrobial activity against Desulfovibrio vulgaris by Wadsworth agar dilution method; conditions: Nitratidesulfovibrio vulgaris
Fusobacterium mortiferum [6] = assay: Antimicrobial activity against Clostridium rectum by Wadsworth agar dilution method
Bacteroides nordii = assay: Antimicrobial activity against Bacteroides nordii by Wadsworth agar dilution method
Clostridium cocleatum = assay: Antimicrobial activity against Clostridium cocleatum by Wadsworth agar dilution method; conditions: Thomasclavelia cocleata
Clostridium bartlettii = assay: Antimicrobial activity against Clostridium bartlettii by Wadsworth agar dilution method; conditions: Intestinibacter bartlettii
[7] = system: Peptoniphilus asaccharolyticus; assay: Antimicrobial activity against Peptoniphilus asaccharolyticus by Wadsworth agar dilution method
[Clostridium] innocuum = Antimicrobial activity against Clostridium innocuum by Wadsworth agar dilution method
Clostridium glycolicum = assay: Antimicrobial activity against Clostridium glycolicum by Wadsworth agar dilution method; conditions: Terrisporobacter glycolicus
Eubacterium cylindroides = assay: Antimicrobial activity against Eubacterium cylindroides by Wadsworth agar dilution method; conditions: Faecalitalea cylindroides
Bilophila wadsworthia = assay: Antimicrobial activity against Bilophila wadsworthia by Wadsworth agar dilution method in presence of 1% pyruvic acid
[8] = system: Lactobacillus catenaformis; assay: Antimicrobial activity against Lactobacillus catenaformis by Wadsworth agar dilution method; conditions: Eggerthia catenaformis
[9] = system: Coprobacillus cateniformis; assay: Antimicrobial activity against Coprobacillus cateniformis by Wadsworth agar dilution method
Fusobacterium nucleatum = assay: Antimicrobial activity against Fusobacterium nucleatum by Wadsworth agar dilution method
[10] = system: Ruminococcus flavefaciens; assay: Antimicrobial activity against Ruminococcus flavefaciens by Wadsworth agar dilution method
Bifidobacterium dentium = assay: Antimicrobial activity against Bifidobacterium dentium by Wadsworth agar dilution method
Actinomyces viscosus = assay: Antimicrobial activity against Actinomyces viscosus by Wadsworth agar dilution method
Hoylesella loescheii = assay: Antimicrobial activity against Prevotella loescheii by Wadsworth agar dilution method
Prevotella disiens = assay: Antimicrobial activity against Prevotella disiens by Wadsworth agar dilution method
Fusobacterium mortiferum [11] = assay: Antimicrobial activity against Fusobacterium mortiferum by Wadsworth agar dilution method in presence of beta-lactamase inhibitor Sulbactam
Holdemania filiformis = assay: Antimicrobial activity against Holdemania filiformis by Wadsworth agar dilution method
Clostridium leptum = assay: Antimicrobial activity against Clostridium leptum by Wadsworth agar dilution method
Cutibacterium acnes = assay: Antimicrobial activity against Propionibacterium acnes by Wadsworth agar dilution method
Clostridium spiroforme = assay: Antimicrobial activity against Clostridium spiroforme by Wadsworth agar dilution method; conditions: Thomasclavelia spiroformis
[12] = system: Limosilactobacillus fermentum; assay: Antimicrobial activity against Lactobacillus fermentum by Wadsworth agar dilution method

CN[C@H](CC(C)C)C(=O)N[C@H]1C(=O)N[C@@H](CC(N)=O)C(=O)N[C@H]2C(=O)N[C@H]3C(=O)N[C@H](C(=O)N[C@H](C(=O)O)c4cc(O)cc(O)c4-c4cc3ccc4O)[C@H](O)c3ccc(c(Cl)c3)Oc3cc2cc(c3O[C@@H]2O[C@H](CO)[C@@H](O)[C@H](O)[C@H]2O[C@H]2C[C@](C)(N)[C@H](O)[C@H](C)O2)Oc2ccc(cc2Cl)[C@H]1O [VANCOMYCIN]
> 1020 µg/mL: MIC50 (Desulfovibrio sp.) | MIC90 (Desulfovibrio sp.) | MIC50 (Desulfovibrio vulgaris) | MIC90 (Desulfovibrio vulgaris) | MIC90 (Fusobacterium mortiferum [11])
64 µg/mL: MIC90 [1] | MIC90 (Eubacterium callanderi) | MIC90 (Schaalia meyeri) | MIC90 (Bacteroides caccae) | MIC90 (Lactobacillus sp.) | MIC90 (Eubacterium limosum) | MIC90 (Bifidobacterium breve) | MIC (Bacteroides nordii) | MIC50 (Bacteroides nordii) | MIC90 (Eubacterium cylindroides) | MIC (Bilophila wadsworthia) | MIC50 (Bilophila wadsworthia) | MIC90 [8] | MIC90 [9] | MIC90 (Bifidobacterium dentium) | MIC90 (Actinomyces viscosus) | MIC90 (Holdemania filiformis) | MIC90 (Cutibacterium acnes) | MIC90 [12]
0.5 µg/mL: MIC50 (Ruminococcus gnavus) | MIC50 (Parvimonas micra) | MIC50 (Ruminococcus lactaris) | MIC50 (Blautia luti) | MIC50 [2] | MIC50 (Anaerococcus prevotii) | MIC50 (Anaerococcus tetradius) | MIC50 (Ruminococcus obeum) | MIC50 [7] | MIC50 [10]
1 µg/mL: MIC50 [1] | MIC50 (Clostridium subterminale) | MIC50 (Clostridium fallax) | MIC50 (Eubacterium callanderi) | MIC50 (Schaalia meyeri) | MIC90 (Ruminococcus gnavus) | MIC90 (Parvimonas micra) | MIC50 (Clostridium sporogenes) | MIC90 (Ruminococcus lactaris) | MIC90 (Blautia luti) | MIC90 [2] | MIC50 (Lactobacillus sp.) | MIC50 (Eubacterium limosum) | MIC50 (Bifidobacterium breve) | MIC50 [3] | MIC90 (Anaerococcus prevotii) | MIC90 (Anaerococcus tetradius) | MIC90 (Ruminococcus obeum) | MIC50 [5] | MIC50 (Fusobacterium mortiferum [6]) | MIC50 (Clostridium cocleatum) | MIC50 (Clostridium bartlettii) | MIC90 [7] | MIC50 (Clostridium glycolicum) | MIC50 (Eubacterium cylindroides) | MIC50 [8] | MIC50 [9] | MIC90 [10] | MIC50 (Bifidobacterium dentium) | MIC50 (Actinomyces viscosus) | MIC50 (Holdemania filiformis) | MIC50 (Clostridium leptum) | MIC50 (Cutibacterium acnes) | MIC50 (Clostridium spiroforme) | MIC50 [12]
2 µg/mL: MIC50 [4] | MIC90 [4]
32 µg/mL: MIC50 (Bacteroides caccae)
16 µg/mL: MIC ([Clostridium] innocuum) | MIC50 ([Clostridium] innocuum)
512 µg/mL: MIC90 (Fusobacterium nucleatum)
128 µg/mL: MIC90 (Bacteroides nordii) | MIC90 (Bilophila wadsworthia) | MIC50 (Hoylesella loescheii) | MIC50 (Prevotella disiens)
8 µg/mL: MIC90 (Porphyromonas)
4 µg/mL: MIC90 (Clostridium subterminale) | MIC90 (Clostridium fallax) | MIC90 (Clostridium sporogenes) | MIC90 [3] | MIC50 (Porphyromonas) | MIC90 [5] | MIC90 (Fusobacterium mortiferum [6]) | MIC90 (Clostridium cocleatum) | MIC90 (Clostridium bartlettii) | MIC90 (Clostridium glycolicum) | MIC90 (Clostridium leptum) | MIC90 (Clostridium spiroforme)
256 µg/mL: MIC90 ([Clostridium] innocuum) | MIC50 (Fusobacterium nucleatum) | MIC90 (Hoylesella loescheii) | MIC90 (Prevotella disiens) | MIC50 (Fusobacterium mortiferum [11])

CC(=O)Oc1ccccc1C(=O)Nc1ncc([N+](=O)[O-])s1 [NITAZOXANIDE]
2 µg/mL: MIC50 [1] | MIC50 (Eubacterium callanderi) | MIC50 (Schaalia meyeri) | MIC50 (Bacteroides caccae) | MIC50 (Lactobacillus sp.) | MIC50 (Eubacterium limosum) | MIC50 (Bifidobacterium breve) | MIC50 (Eubacterium cylindroides) | MIC50 [8] | MIC50 [9] | MIC50 (Bifidobacterium dentium) | MIC50 (Actinomyces viscosus) | MIC50 (Holdemania filiformis) | MIC50 (Cutibacterium acnes) | MIC50 [12]
0.25 µg/mL: MIC50 [4] | MIC90 [4] | MIC (Fusobacterium nucleatum) | MIC50 (Fusobacterium nucleatum)
32 µg/mL: MIC90 [1] | MIC90 (Eubacterium callanderi) | MIC90 (Schaalia meyeri) | MIC90 (Lactobacillus sp.) | MIC90 (Eubacterium limosum) | MIC90 (Bifidobacterium breve) | MIC90 (Eubacterium cylindroides) | MIC90 [8] | MIC90 [9] | MIC90 (Bifidobacterium dentium) | MIC90 (Actinomyces viscosus) | MIC90 (Holdemania filiformis) | MIC90 (Cutibacterium acnes) | MIC90 [12]
4 µg/mL: MIC90 (Clostridium subterminale) | MIC90 (Clostridium fallax) | MIC90 (Bacteroides caccae) | MIC90 (Desulfovibrio sp.) | MIC90 (Clostridium sporogenes) | MIC90 [3] | MIC90 [5] | MIC90 (Desulfovibrio vulgaris) | MIC90 (Fusobacterium mortiferum [6]) | MIC50 (Bacteroides nordii) | MIC90 (Bacteroides nordii) | MIC90 (Clostridium cocleatum) | MIC90 (Clostridium bartlettii) | MIC90 ([Clostridium] innocuum) | MIC90 (Clostridium glycolicum) | MIC50 (Bilophila wadsworthia) | MIC90 (Bilophila wadsworthia) | MIC50 (Hoylesella loescheii) | MIC50 (Prevotella disiens) | MIC90 (Clostridium leptum) | MIC90 (Clostridium spiroforme)
0.5 µg/mL: MIC50 (Clostridium subterminale) | MIC50 (Clostridium fallax) | MIC50 (Ruminococcus gnavus) | MIC50 (Parvimonas micra) | MIC50 (Clostridium sporogenes) | MIC50 (Ruminococcus lactaris) | MIC50 (Blautia luti) | MIC50 [2] | MIC50 [3] | MIC50 (Anaerococcus prevotii) | MIC50 (Anaerococcus tetradius) | MIC50 (Porphyromonas) | MIC50 (Ruminococcus obeum) | MIC50 [5] | MIC50 (Fusobacterium mortiferum [6]) | MIC50 (Clostridium cocleatum) | MIC50 (Clostridium bartlettii) | MIC50 [7] | MIC50 (Clostridium glycolicum) | MIC90 (Fusobacterium nucleatum) | MIC50 [10] | MIC50 (Clostridium leptum) | MIC50 (Clostridium spiroforme)
1 µg/mL: MIC90 (Ruminococcus gnavus) | MIC90 (Parvimonas micra) | MIC50 (Desulfovibrio sp.) | MIC90 (Ruminococcus lactaris) | MIC90 (Blautia luti) | MIC90 [2] | MIC90 (Anaerococcus prevotii) | MIC90 (Anaerococcus tetradius) | MIC90 (Porphyromonas) | MIC90 (Ruminococcus obeum) | MIC50 (Desulfovibrio vulgaris) | MIC90 [7] | MIC50 ([Clostridium] innocuum) | MIC90 [10] | MIC50 (Fusobacterium mortiferum [11])
8 µg/mL: MIC90 (Hoylesella loescheii) | MIC90 (Prevotella disiens) | MIC90 (Fusobacterium mortiferum [11])
